According to patent US8765720B2, “Combination therapy for the treatment of multiple myeloma” (Cephalon, Inc., priority 2009, dated 2014):

What was measured:
LAGκ-1A tumor = experiment: Intramuscular LAGκ-1A tumor xenograft model (serum hIgG, tumor volume); details: for serum hIgG levels: 28 days of treatment; for serum hIgG levels and tumor volume vs vehicle: alone or together
Description: (§1) Six- to 8-week-old male severe combined immunodeficient (SCID) mice were obtained from the Jackson Laboratory (Bar Harbor, Me.) and maintained in a specific pathogen-free area in our animal resources facility. All animal studies were conducted according to protocols approved by the Institutional Animal Care and Use Committee. Animals were anesthetized with ketamine, xylazine, and isoflurane prior to surgery and were euthanized when tumors reached 2 cm in diameter.
(§2) Biopsy tissue was surgically implanted in the hind limbs of anesthetized SCID mice and passaged through succeeding generations (32).
(§3) Myeloma tumors (LAGκ-1A or LAGκ-1B) were excised from an anesthetized donor mouse, sectioned into 20 to 40 mm^3 pieces, and surgically implanted into the left superficial gluteal muscle of anesthetized naive SCID mice. Recipient mice received weekly injections of anti-asialo GM1 rabbit serum (Wako Bioproducts, Richmond, Va.) to further suppress immune activity. Mice were blindly assigned to one of the experimental groups, and treatment was initiated 7 to 21 days after tumor implantation. COMPOUND 1 was administered via oral gavage daily (0.5-5.0 mg/kg) or twice weekly (5-10 mg/kg). COMPOUND 1 was also administered twice weekly (W, F) via either IV injection (0.5-3.0 mg/kg) or oral gavage (10 mg/kg), as specified. Melphalan (1 mg/kg) was provided via weekly intraperitoneal (IP) injections (W). Bortezomib (0.5 mg/kg) was dispensed twice weekly (T, Th) via IV injection. Control treatment consisted of COMPOUND 1 diluent (3.2 mL 5% mannitol and 800 μL propylene glycol) alone.
Mice bearing MM tumors underwent weekly retro-orbital bleeds. Resulting samples were spun at 13,000 rpm for 30 minutes to isolate serum. The hIgG ELISA kit (Bethyl Laboratories, Montgomery, Tex.) was used according to the manufacturer's specifications. Absorbance at 450 nm with a reference wavelength of 550 nm was determined on a μQuant microplate spectrophotometer with KC Junior software (Bio-Tek Instruments, Winooski, Vt.). Data graphed are the mean±SEM with n=7-8 mice/group.
(§4) As a direct measurement of tumor growth, calipers were used to assess tumor volume weekly, and the formula for an ellipsoid volume was applied ( 4/3π×[width/2]^2×[length/2]).
(§5) Percent inhibition of tumor growth is represented as the tumor volume of the test drug group over the tumor volume of the untreated group (T/C). The optimal value is the minimal T/C ratio that reflects the maximal tumor growth inhibition achieved. The criterion for efficacy for the T/C ratio is ≦42%, according to National Cancer Institute (NCI) standard criteria (44).
(§6) Efficacy of drug therapy against tumors was standardized to the time (t) required for the untreated tumor to grow to a determined size based on the greatest difference in time to reach a tumor volume between the control and treatment group. This value can be represented as the growth delay (in days) between treated and control (tt−tc) (44).
(§7) Tumor growth and hIgG levels were analyzed in terms of treatment group means and standard error. Student's t-test was applied to determine the statistical significance of differences between treatment groups. Minimal significance level was P<0.05.

[1] = system: apoptosis-inducing factor (AIF); experiment: Immunohistochemical analysis of AIF expression in LAGκ-1B tumors; assay type: in vivo, SCID mice; details: COMPOUND 1 1 mg/kg, bortezomib 0.5 mg/kg, alone or both; tumors excised post-treatment
Description: LAGκ-1B tumors were fixed in 4% paraformaldehyde and cut into 5 μm sections. Briefly, sections were blocked with Tris-buffered saline with 0.05% Tween-20 (TBST) and 3% BSA for 1 hour at room temperature and then incubated overnight with a rabbit antibody against AIF (Sigma, St. Louis, Mo.). The sections were washed three times with TBST and treated with horse radish […] anti-rabbit antibody (KPL, Gaithersburg, Md.) diluted 1:500 in TBST at room temperature for 2 hours. The slides were washed three times in TBST and placed in 3-amino-9-ethylcarbazole (AEC) buffer for 5 minutes, and color was detected using an AEC kit (Dako, Glostrup, Denmark). Staining was documented using an Olympus BX51 microscope (Olympus Imaging America Inc., Center Valley, Pa.) and analyzed by Microsuite Biological Suite program (Olympus BX51).

LAGκ-1B tumor = experiment: Intramuscular LAGκ-1B tumor xenograft model (tumor volume); details: for delay of tumor volume growth to 300 mm^3: oral 5 mg/kg daily; for delay of tumor volume at 220 mm^3 / Percentage T/C: oral 10 mg/kg twice weekly
Description: as §1, §2
as §3, with “Melphalan (1 mg/kg) was provided via weekly intraperitoneal (IP) injections (W).” left out
as §4, §5, §6, §7

MM1S cells = experiment: Cell viability assay (MTS assay), MM1S cells; assay type: cell-based, human; details: 48 hours
Description: In vitro synergy between COMPOUND 1 and bortezomib or melphalan was assessed using the median effect method of Chou and Talalay (30). Combination indices (CIs) were calculated separately for each combination. […] CIs between 0.9 and 1.1 were considered to indicate additive drug effects (31).

LAGλ-1 = LAGλ-1 MM tumor model; assay type: in vivo; details: COMPOUND 1 monotherapy
[2] = bortezomib 0.5 mg/kg IV, COMPOUND 1 1 mg/kg IV, alone or together

Compound: CC(C)C[C@H](NC(=O)[C@@H](NC(=O)c1cccc(-c2ccccc2)n1)[C@@H](C)O)B(O)O [COMPOUND 1, [(1R)-1-[[(2S,3R)-3-hydroxy-2-[6-phenyl-pyridine-2-carbonyl)amino]-1-oxobutyl]amino]-3-methylbutylboronic acid]
- serum hIgG levels (LAGκ-1A tumor; 1 mg/kg and 3 mg/kg IV twice weekly, P=0.0001 / P=0.0002 vs control): essentially undetectable
- serum hIgG levels and tumor volume vs vehicle (LAGκ-1A tumor; COMPOUND 1 1 mg/kg IV, bortezomib 0.5 mg/kg IV, twice weekly): only partially inhibited
- reduction in the volume of tumors vs control (LAGκ-1A tumor; IV 1 or 3 mg/kg twice weekly, after 4 weeks, P=0.0001): approximately 15 fold
- serum hIgG levels and tumor volume vs vehicle (LAGκ-1A tumor; melphalan 1 mg/kg IP weekly, COMPOUND 1 1 mg/kg IV twice weekly, 3 weeks): nonsignificant decrease
- delay of tumor volume growth to 87.5 mm^3 (LAGκ-1A tumor; mouse, in vivo, po, 5 mg/kg): 53 days
- tumor inhibition (hIgG, tumor volume) (LAGκ-1A tumor; mouse, in vivo, po, 5 mg/kg): significant tumor inhibition
- mice died of drug-related toxicity (LAGκ-1A tumor; oral 5 mg/kg daily): Two of fifteen
- delay of tumor volume growth to 87.5 mm^3 (LAGκ-1A tumor; oral 5 mg/kg daily, vs untreated control): 530%
- mice surviving five weeks of dosing and three week follow-up (LAGκ-1A tumor; oral 10 mg/kg twice weekly): 15/15
- Percentage T/C (LAGκ-1A tumor; oral 10 mg/kg twice weekly, day 21): 29.3%
- Percentage T/C (LAGκ-1A tumor; oral 10 mg/kg twice weekly, day 28): 17.3%
- delay of tumor volume growth to 700 mm^3 (LAGκ-1A tumor; oral 10 mg/kg twice weekly, day 32.5 control vs day 63): 30.5 days
- Percentage T/C (LAGκ-1A tumor; oral 10 mg/kg twice weekly, day 35): 6.1%
- Percentage T/C (LAGκ-1A tumor; oral 10 mg/kg twice weekly, day 42): 6.1%
- Percentage T/C (LAGκ-1A tumor; oral 10 mg/kg twice weekly, day 49): 10.6%
- human paraprotein secretion and tumor volume (LAGκ-1A tumor; oral 10 mg/kg twice weekly, three weeks (day 28), hIgG P=0.0011, tumor volume P=0.001): significant inhibition of both human paraprotein secretion and reduction of tumor volume
- delay of tumor volume growth to 700 mm^3 (LAGκ-1A tumor; oral 10 mg/kg twice weekly, vs no treatment): 93.8%
- tumor volume vs control-treated tumors (LAGκ-1A tumor; oral (10 mg/kg twice weekly), 14 days of treatment, P=0.0002): marked reduction in tumor volume
- serum hIgG levels (LAGκ-1A tumor; oral (10 mg/kg twice weekly), P=0.0001): negligible
- serum hIgG levels vs control-treated animals (LAGκ-1A tumor; oral (10 mg/kg twice weekly), within 2 weeks of treatment, P=0.0007): significantly lower
- anti-myeloma activity (human IgG levels and tumor volumes) (LAGκ-1A tumor; oral, daily, 3 mg/kg): moderate anti-myeloma activity
- paraprotein secretion from tumors (LAGκ-1A tumor; single-agent IV twice weekly, escalating doses): dose-dependent decrease in paraprotein secretion
- AIF expression vs vehicle-treated tumors [1]: elevated AIF expression
- tumors, times smaller than control-treated mice (LAGκ-1B tumor; 3 mg/kg IV or 10 mg/kg oral twice weekly, after 14 days, P=0.0008 / P=0.0028): 8 to 12 times
- days to tumor progression (LAGκ-1B tumor; [2]): 35 days
- survival longer than vehicle-treated mice (LAGκ-1B tumor; [2]): 20%
- tumor growth vs vehicle (LAGκ-1B tumor; bortezomib 0.5 mg/kg IV, COMPOUND 1 1 mg/kg IV, alone or together, combination after 21 days P=0.0014): only modestly suppresses
- drug-related / toxicity-related deaths (LAGκ-1B tumor; by day 70, bortezomib 0.5 mg/kg IV, COMPOUND 1 1 mg/kg IV, alone or together): one death each
- tumor volume (LAGκ-1B tumor; mouse, in vivo): partially inhibited
- body weight (LAGκ-1B tumor; mouse, in vivo, po): without significant loss of body weight
- tumor volume inhibition (LAGκ-1B tumor; oral 5 mg/kg daily or 10 mg/kg twice weekly, day 35, P=0.0327 / P=0.0018): significant tumor volume inhibition
- delay of tumor volume growth to 300 mm^3 (LAGκ-1B tumor; day 31 control vs day 42): 11 days
- delay of tumor volume growth to 300 mm^3 (LAGκ-1B tumor; vs no treatment): 35.5%
- delay of tumor volume at 220 mm^3 (LAGκ-1B tumor; day 28 control vs day 42): 14 days
- Percentage T/C (LAGκ-1B tumor; day 35): 21.6%
- Percentage T/C (LAGκ-1B tumor; day 42): 27.5%
- Percentage T/C (LAGκ-1B tumor; day 49): 26.1%
- Percentage T/C (LAGκ-1B tumor; day 56): 30.5%
- delay of tumor volume at 220 mm^3 (LAGκ-1B tumor; vs untreated control): 50%
- inhibition of viability (MM1S cells; COMPOUND 1 0.1-10 nM): concentration-dependent inhibition of viability
- cytotoxicity at 0.00175 µM (MM1S cells; Homo sapiens, MM1.S, single-agent COMPOUND 1 1.75 nM, read-out: inhibition of cell viability): ~16%
- Ig levels and tumor volumes (LAGλ-1): statistically significant reduction
